Results from ChEMBL document CHEMBL1126932, “Mechanism-based inhibitors of prostaglandin omega-hydroxylase: (R)- and (S)-12-hydroxy-16-heptadecynoic acid and 2,2-dimethyl-12-hydroxy-16-heptadecynoic acid” (J Med Chem, 1993).

Target: T1, Cytochrome P450 4A4 (Oryctolagus cuniculus, UniProt P10611)
T1 sequence (P10611 whole entry): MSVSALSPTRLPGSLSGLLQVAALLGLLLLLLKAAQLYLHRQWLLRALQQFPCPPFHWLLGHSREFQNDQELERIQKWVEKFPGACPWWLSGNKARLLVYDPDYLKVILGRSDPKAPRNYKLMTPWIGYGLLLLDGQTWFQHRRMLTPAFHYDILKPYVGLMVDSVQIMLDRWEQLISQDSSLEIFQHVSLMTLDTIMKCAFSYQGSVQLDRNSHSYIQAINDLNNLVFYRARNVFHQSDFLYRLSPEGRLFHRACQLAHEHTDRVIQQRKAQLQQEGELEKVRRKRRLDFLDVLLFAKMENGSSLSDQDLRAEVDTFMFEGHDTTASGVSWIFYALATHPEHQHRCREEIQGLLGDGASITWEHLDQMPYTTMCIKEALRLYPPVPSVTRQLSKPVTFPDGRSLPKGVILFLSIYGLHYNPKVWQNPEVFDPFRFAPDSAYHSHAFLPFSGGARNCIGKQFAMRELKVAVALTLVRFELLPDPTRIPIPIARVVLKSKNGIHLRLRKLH
Experiment: Inactivation of prostaglandin E1 omega-hydroxylase (Cytochrome P450 4A4) in rabbit lung
Assay type: tissue-based

| Ki | Compound |
| --- | --- |
| 1.8 µM | C#CCCC[C@@H](O)CCCCCCCCCCC(=O)O |
| 4.9 µM | C#CCCCC(O)CCCCCCCCCC(C)(C)C(=O)O (centres undefined) |
| 3.6 µM | C#CCCC[C@H](O)CCCCCCCCCCC(=O)O |
| 4.8 µM | C#CCCCC(O)CCCCCCCCCCC(=O)O (racemic) |
